In patent US4145444A, “Anti-inflammatory agent of benzoyl derivative” (priority 1977, dated 1979):
Read-outs that look alike come from different tables or passages of the source.

What was measured:
[1] = tested on: adjuvant-induced arthritis; experiment: Chronic inflammation (adjuvant-induced arthritis): reduction in edema of the hind paws; assay type: in vivo, female rats of Sprague Drawley strain
Procedure: (§1) The effects of 1 4-n-butyl benzophenone and 2 4-n-butyl-2'-fluorobenzophenone against adjuvant-induced arthritis were studied.
(§2) For the study, adult female rats of Sprague Drawley strain weighing approximately 200 g were used. All rats received 0.1 ml of a suspension of dry heat-killed tubercle bacilli (human strains, commercial product of Difco Co.) in liquid paraffin (5 mg/ml, w/v) by a single intradermal injection into the tail.
The treatment of the animals by the test compounds were started fourteen days after injection of the adjuvant when arthritis developed sufficiently accompanying edema and erythema in paws. Each compound was orally given to animals daily for ten days. […] Phenylbutazone was used as the reference drug.
(§3) Evaluations were made using the following parameters.
(2) Relative reduction in edema of the hind paws.

hind paws of male rats = experiment: Anti-inflammatory effect: acute carragheenin edema method; assay type: in vivo; conditions: for anti-inflammatory effect, inhibition rate (ED50), in words: rat, in vivo; for inhibition in vivo at 100 mg/kg: Rattus norvegicus, read-out: Anti-inf.: edema inhibition rate
Procedure: The edema was induced by subcutaneous injection of 1% carragheenin suspension in saline to the hind paws of male rats weighting 150 to 180 g. Each sample was orally given at the dosage of 100 mg/kg just before the inoculation of carragheenin.

[2] = Chronic inflammation (adjuvant-induced arthritis): body weight gain; assay type: in vivo, female rats of Sprague Drawley strain
Procedure: as §1, §2
The treatment of the animals by the test compounds were started fourteen days after injection of the adjuvant when arthritis developed sufficiently accompanying edema and erythema in paws. […] […] Phenylbutazone was used as the reference drug.
as §3

male mice = experiment: Analgesic effect: painful stretchings following intraperitoneal 0.7% acetic acid; conditions: Mus musculus, po, read-out: Analgesic: percentage diminition of times of painful stretching
Procedure: Each sample was orally administered in the dosage of 100 mg/kg before injection of acetic acid.

thrombus = experiment: Inhibiting effect on thrombosis (by-pass between left juglar vein and right carotid artery, silk thread); assay type: in vivo, SD type male rates; conditions: Rattus norvegicus, read-out: Thrombosis inh.: thrombosis inhibition rate
How it was run: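 Arteriovenous shunt with silk thread and heparin saline, run as three successive 15-min circulations, with thrombus wet weight measured on the thread each time. Compound given orally in carboxymethyl cellulose suspension at 100 mg/kg 5 h before the first circulation. Inhibition rate derived against control circulations.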

platelet = experiment: Blood platelet aggregation inhibiting effect (collagen-induced); assay type: cell-based, rabbits; conditions: Oryctolagus cuniculus, Platelet, read-out: Blood platelet agg. inh.: percentage inhibition of platelet aggregation
Text: Male rabbits (Japan original white strain 3.3 to 3.6 kg) were anesthetized with Thiopental sodium and blood was sampled from the carotid artery.

[3] = 100 mg/kg oral, 5 hours before first blood circulation, rats
[4] = 100 mg/kg oral, carragheenin edema, male rats (Table 2)
[5] = 10^-4 mole, collagen inducer, rabbit PRP

Row | SMILES | inhibition in vivo at 100 mg/kg (male mice) | inhibition in vivo at 100 mg/kg (thrombus; [3]) | inhibition in vivo at 100 mg/kg (hind paws of male rats; [4]) | inhibition at 100 µM (platelet; [5]) | further results
1 | CCCCc1ccc(C(=O)c2ccccc2)cc1 [Active ingredient No. 19, 4-n-butyl benzophenone] | – | – | – | – | Relative volume ratio of swelling in hind paws, average, 6 days ([1]; 100 mg/kg/day oral): 0.97; Relative volume ratio of swelling in hind paws, average, 10 days ([1]; 100 mg/kg/day oral): 1.02; Relative volume ratio of swelling in hind paws, average, 6 days ([1]; 200 mg/kg/day oral): 0.76; Relative volume ratio of swelling in hind paws, average, 10 days ([1]; 200 mg/kg/day oral): 0.75; anti-inflammatory effect, inhibition rate (ED50), in words (hind paws of male rats): especially high inhibition rate (ED50); Body weight gain, average, 0 days ([2]; 100 mg/kg/day oral): 229.2; Body weight gain, average, 6 days ([2]; 100 mg/kg/day oral): 217.5; Body weight gain, average, 10 days ([2]; 100 mg/kg/day oral): 218.2; Body weight gain, average, 0 days ([2]; 200 mg/kg/day oral): 214.1; Body weight gain, average, 6 days ([2]; 200 mg/kg/day oral): 213.3; Body weight gain, average, 10 days ([2]; 200 mg/kg/day oral): 220.1
2 | CCCCCCCCCCCc1ccc(C(=O)Cc2ccccc2)cc1 [compound 51] | 18.3% | 13.5% | 24.6% | 9.5% | –
3 | CC(C)c1ccc(C(=O)c2ccccc2)cc1 [compound 21] | 16.1% | 5.4% | 37.3% | 8.6% | –
4 | Cc1ccc(C(=O)c2ccccc2)cc1 [compound 65] | 10.9% | 19.2% | 17.3% | 21% | –
5 | CCCCC1C(=O)N(c2ccccc2)N(c2ccccc2)C1=O [Phenylbutazone, reference compound] | – | – | – | – | Relative volume ratio of swelling in hind paws, average, 6 days ([1]; 50 mg/kg/day oral): 0.75; Relative volume ratio of swelling in hind paws, average, 10 days ([1]; 50 mg/kg/day oral): 0.75; Body weight gain, average, 0 days ([2]; 50 mg/kg/day oral): 215.6; Body weight gain, average, 6 days ([2]; 50 mg/kg/day oral): 207.7; Body weight gain, average, 10 days ([2]; 50 mg/kg/day oral): 214.3
6 | CCCCc1ccc(C(=O)c2ccccc2Cl)cc1 [compound 44] | 15.6% | 35.6% | 57.7% | 10.5% | –
7 | CCCCc1ccc(C(=O)c2ccccc2F)cc1 [compound 8] | 14.8% | 38% | 82.6% | 24% | –
8 | CCCCCc1ccc(C(=O)c2ccc(C)cc2)cc1 [compound 84] | 15.3% | 16% | 28.4% | 8.6% | –
9 | Cc1cc(C)c(C(=O)c2ccc(Cl)cc2)c(C)c1 [compound 14] | 19.2% | 23.3% | 37.3% | 18.1% | –
10 | COc1ccc(OC)c(C(=O)c2ccccc2)c1 [compound 75] | 22% | 29.2% | 29.5% | 30.7% | –
11 | CCc1ccc(C(=O)C(=O)c2ccccc2)cc1 [compound 55] | 15.8% | 16.4% | 29% | 23.3% | –
12 | CCCc1ccc(C(=O)c2ccc(Cl)cc2)cc1 [compound 63] | 8.2% | 6.2% | 11.8% | 15.6% | –
13 | CCCCCCCCCCc1ccc(C(=O)Cc2ccccc2)cc1 [compound 50] | 16.4% | 28.3% | 25.5% | 8.7% | –
14 | COc1ccc(C(=O)Cc2ccc(Cl)cc2)cc1 [compound 60] | 6.3% | 12.3% | 13.2% | 4% | –
15 | CCCCc1ccc(C(=O)c2ccc(CCC)cc2)cc1 [compound 98] | 16.4% | 35.4% | 31.9% | 28.3% | –
16 | Cc1cc(C)c(C(=O)c2ccccc2)c(C)c1C [compound 79] | 20.8% | 31.5% | 33.2% | 26.8% | –
17 | COc1ccc(C(=O)C(=O)c2ccccc2)cc1 | 10.2% | – | – | – | inhibition in vivo at 100 mg/kg (thrombus; po, 5 h): 18.3%; inhibition in vivo at 100 mg/kg (hind paws of male rats; po): 43.9%; inhibition at 100 µM (platelet): 20.1%
18 | CC(C)(C)c1ccc(C(=O)c2ccccc2)cc1 [compound 22] | 8.2% | 7.9% | 36.4% | 9.5% | –

Row | SMILES | inhibition in vivo at 100 mg/kg (male mice) | inhibition in vivo at 100 mg/kg (thrombus; [3]) | inhibition in vivo at 100 mg/kg (hind paws of male rats; [4]) | inhibition at 100 µM (platelet; [5]) | further results
19 | CCCCc1ccc(C(=O)c2ccccc2F)cc1 [Active ingredient No. 8, 4-n-butyl-2'-fluorobenzophenone] | – | – | – | – | Relative volume ratio of swelling in hind paws, average, 6 days ([1]; 50 mg/kg/day oral): 0.74; Relative volume ratio of swelling in hind paws, average, 10 days ([1]; 50 mg/kg/day oral): 0.76; Relative volume ratio of swelling in hind paws, average, 6 days ([1]; 100 mg/kg/day oral): 0.78; Relative volume ratio of swelling in hind paws, average, 10 days ([1]; 100 mg/kg/day oral): 0.73; anti-inflammatory effect, inhibition rate (ED50), in words (hind paws of male rats): especially high inhibition rate (ED50); Body weight gain, average, 0 days ([2]; 50 mg/kg/day oral): 222.6; Body weight gain, average, 6 days ([2]; 50 mg/kg/day oral): 223.0; Body weight gain, average, 10 days ([2]; 50 mg/kg/day oral): 232.0; Body weight gain, average, 0 days ([2]; 100 mg/kg/day oral): 211.8; Body weight gain, average, 6 days ([2]; 100 mg/kg/day oral): 205.8; Body weight gain, average, 10 days ([2]; 100 mg/kg/day oral): 214.4
20 | CCCCc1ccc(CCCC)c(C(=O)c2ccccc2)c1 [compound 77] | 10.8% | 17.5% | 13.2% | 25.1% | –
21 | CCCOc1ccc(C(=O)Cc2ccccc2)cc1 [compound 58] | 19.8% | 14.6% | 15.3% | 20.1% | –
22 | COc1ccc(C(=O)Cc2ccccc2)cc1 [compound 57] | 10.3% | 6.5% | 16.1% | 12.5% | –
23 | O=C(C(=O)c1ccccc1)c1ccccc1 [compound 53] | 14.2% | – | – | 10.1% | inhibition in vivo at 100 mg/kg (thrombus; po, 5 h): 19.2%; inhibition in vivo at 100 mg/kg (hind paws of male rats; po): 20.3%
24 | CCCCCCCCCCc1ccc(C(=O)c2ccccc2)cc1 [compound 68] | 5.8% | 20.3% | 17.6% | 16.5% | –
25 | CCCCCc1ccc(C(=O)c2ccc(OC)cc2)cc1 [compound 45] | 12.5% | 30.8% | 37.8% | 17.7% | –
26 | CCc1ccc(C(=O)c2ccc(CC)cc2)cc1 [compound 106] | 7.3% | 20.2% | 26.4% | 20.3% | –
27 | CCCCCc1ccc(C(=O)c2ccc(O)cc2)cc1 [compound 105] | 14.1% | 31.4% | 33.6% | 24.1% | –
28 | CCCCCCCc1ccc(C(=O)c2ccccc2)cc1 [compound 25] | 48.6% | 22.1% | 40.8% | 7.8% | –
29 | Cc1ccc(C(=O)C(=O)c2ccccc2)cc1 [compound 54] | 11.3% | – | – | 15.4% | inhibition in vivo at 100 mg/kg (thrombus; po, 5 h): 20.3%; inhibition in vivo at 100 mg/kg (hind paws of male rats; po): 25.5%
30 | CCCCCCCCCCCCc1ccc(C(=O)c2ccccc2)cc1 [compound 69] | 6.7% | 12.7% | 12% | 13.5% | –
31 | CCCCCc1ccc(C(=O)c2ccccc2)cc1 [compound 23] | 10.1% | 22.3% | 50.4% | 13.8% | –
32 | CCCCc1ccc(C(=O)c2ccc(OC)cc2)cc1 [compound 18] | 20.1% | 24.2% | 41.6% | 9.3% | –
33 | CCCc1ccc(C(=O)c2c(C)cc(C)cc2C)cc1 [compound 97] | 14.7% | 37.3% | 13% | 26.8% | –
34 | CCCCc1ccc(C(=O)c2ccc(Cl)cc2)cc1 [compound 64] | 6.6% | 15.9% | 21.4% | 28.5% | –
35 | CCCc1ccc(C(=O)c2ccc(CCC)cc2)cc1 [compound 110] | 10.5% | 18.6% | 17% | 20.5% | –
